Assay results published in article PMC5444726, “A CD44-specific peptide, RP-1, exhibits capacities of assisting diagnosis and predicting prognosis of gastric cancer” (Oncotarget, 2017).

Tested on: CD44 in gastric carcinoma and surrounding tissues
Assay: Immunohistochemistry of human gastric cancer tissue microarray
Details: for RP-1 staining negative, number (%) / RP-1 staining positive, number (%): % of all 100 cases
Method: Prepared paraffin-embedded sections were deparaffinized, rehydrated, retrieved and blocked with 5% BSA (w/v) in PBS at ambient temperature for 30 min. Then, sections were incubated with 100 μM biotin labeled RP-1 peptide or human specific rabbit anti-CD44 monoclonal antibody (1:200, ZSGB-BIO, Beijing, China) overnight at 4°C. After PBS washing for three times, sections were subsequently incubated with streptavidin-HRP (1:500, Proteintech, Wuhan, China) and goat anti-rabbit secondary antibody (1:300, BOSTER, Wuhan, China). Diaminobenzidine (DAB, ZSGB-BIO, Beijing, China) was used as a chromogen. Finally, the sections were counterstained with hematoxylin and mounted with neutral balsam.
Two TMA slides (Shanghai Outdo Biotech Co LTD, Shanghai, China), each containing 100 GC tissues samples (including 66 adenocarcinoma, 19 tubular adenocarcinoma, 8 mucinous adenocarcinoma, 2 undifferentiated carcinoma and 5 signet-ring cell carcinoma tissue samples) and 80 surrounding tissue samples from 100 patients, were used to evaluate the diagnostic and prognostic effects of RP-1. Samples were obtained from treatment-naive patients with written informed consent signed and dated. Age of the 100 patients with GC ranged from 32 to 81 years (mean, 64.4 years). Their clinicopathological characteristics were described in Table 2. The TNM stage of all patients with GC was assessed according to the American Joint Commission for Cancer (AJCC 7th edition) and tumors were histologically classified according to the criteria described by the World Health Organization (2000). The Medical Ethics Committee of Taizhou Hospital of Zhejiang province reviewed and approved all studies.
We performed immunohistochemical staining of TMA slides with RP-1 and human specific anti-CD44 monoclonal antibody by following the procedure described in the section Immunohistochemistry. The immunoreactivity was assessed with the immunohistochemistry score (HSCORE) system, which evaluated the staining intensity and percentages of positive cells stained at a specific magnitude of intensity. The HSCORE was calculated using the equation HSCORE=∑Pi(i) (i = 0, 1, 2, 3, Pi = 0–100%), in which i was the staining intensity (0, no staining; 1, weak staining; 2, moderate staining; 3, strong staining) and Pi was the percentage of positive cells on a scale of 0% to 100%. Positive cell count was assessed in 5 randomly selected fields of vision with a microscope (400×). All immunohistochemical evaluations were conducted by two independent pathologists […].
Receiver–operator curve (ROC) analysis was performed to determine the cut-off score for both RP-1 peptide and anti-CD44 monoclonal antibody. The score closest to the point (0.0, 1.0) with maximum sensitivity and specificity was identified as the cut-off score. Samples with a HSCORE of cut-off value or below were considered as negative staining, otherwise they were considered as positive staining.
Statistical analysis was conducted with SPSS software, version 21.0 (IBM, New York, USA). Kappa values were used to determine the consistency of histological and immunohistochemical results between RP-1 peptide and anti-CD44 antibody. Independent sample t-test was performed to decide existence of statistical difference in fluorescent intensity values between tumor and other normal organs. The ROC analysis was carried out to decide the cut-off value for RP-1 and anti-CD44 antibody. The area under the curve (AUC) was calculated to compare the diagnostic accuracy of RP-1 and anti-CD44 antibody. χ^2-test was used to assess the association between each clinicopathological variable and RP-1 staining intensity, while log-rank test was used for assessing the association between survival and each clinicopathological variable. Multiple Cox proportional hazards regression was performed to verify if RP-1 positivity can be used as an independent risk factor for prognosis of GC. […]

[1] = adenocarcinoma, 66 cases, P = 0.182
[2] = age > 64.4, 46 cases, P = 0.036
[3] = age ≤ 64.4, 54 cases, P = 0.036
[4] = all antibody results, total 100
[5] = clinicopathological stage I, 10 cases, P = 0.526
[6] = clinicopathological stage II, 32 cases, P = 0.526
[7] = clinicopathological stage III, 50 cases, P = 0.526
[8] = clinicopathological stage IV, 8 cases, P = 0.526
[9] = moderately differentiated, 69 cases, P = 0.066
[10] = mucinous adenocarcinoma, 8 cases, P = 0.182
[11] = poorly differentiated, 5 cases, P = 0.066
[12] = signet ring cell carcinoma, 4 cases, P = 0.182
[13] = tubular adenocarcinoma, 19 cases, P = 0.182
[14] = undifferentiated carcinoma, 3 cases, P = 0.182
[15] = well differentiated, 26 cases, P = 0.066

WHPWSYLWTQQA [RP-1, CD44-specific peptide … screened from a 12-mer phage peptide library]
RP-1 staining negative, number (%) [1]: 16 (16.0) | RP-1 staining positive, number (%) [1]: 50 (50.0) | RP-1 staining negative, number (%) [2]: 12 (12.0) | RP-1 staining positive, number (%) [2]: 34 (34.0) | RP-1 staining negative, number (%) [3]: 15 (15.0) | RP-1 staining positive, number (%) [3]: 39 (39.0) | number of pericarcinomatous tissues RP-1 negative (all antibody results, total 80): 70 | number of pericarcinomatous tissues RP-1 positive (all antibody results, total 80): 10 | number of gastric carcinoma tissues RP-1 negative [4]: 27 | number of gastric carcinoma tissues RP-1 positive [4]: 73 | number of gastric carcinoma tissues RP-1 negative (antibody negative): 18 | number of gastric carcinoma tissues RP-1 positive (antibody negative): 18 | number of pericarcinomatous tissues RP-1 negative (antibody negative): 56 | number of pericarcinomatous tissues RP-1 positive (antibody negative): 9 | number of gastric carcinoma tissues RP-1 negative (antibody positive): 9 | number of gastric carcinoma tissues RP-1 positive (antibody positive): 55 | number of pericarcinomatous tissues RP-1 negative (antibody positive): 14 | number of pericarcinomatous tissues RP-1 positive (antibody positive): 1 | RP-1 staining negative, number (%) [5]: 4 (4.0) | RP-1 staining positive, number (%) [5]: 6 (6.0) | RP-1 staining negative, number (%) [6]: 10 (10.0) | RP-1 staining positive, number (%) [6]: 22 (22.0) | RP-1 staining negative, number (%) [7]: 12 (12.0) | RP-1 staining positive, number (%) [7]: 38 (38.0) | RP-1 staining negative, number (%) [8]: 1 (1.0) | RP-1 staining positive, number (%) [8]: 7 (7.0) | RP-1 staining negative, number (%) (died, 69 cases, P < 0.001): 11 (11.0) | RP-1 staining positive, number (%) (died, 69 cases, P < 0.001): 58 (58.0) | RP-1 staining negative, number (%) (female, 36 cases, P = 0.895): 10 (10.0) | RP-1 staining positive, number (%) (female, 36 cases, P = 0.895): 26 (26.0) | RP-1 staining negative, number (%) (male, 64 cases, P = 0.895): 17 (17.0) | RP-1 staining positive, number (%) (male, 64 cases, P = 0.895): 47 (47.0) | RP-1 staining negative, number (%) [9]: 21 (21.0) | RP-1 staining positive, number (%) [9]: 53 (53.0) | RP-1 staining negative, number (%) [10]: 5 (5.0) | RP-1 staining positive, number (%) [10]: 3 (3.0) | RP-1 staining negative, number (%) (pM0, 91 cases, P = 0.260): 26 (26.0) | RP-1 staining positive, number (%) (pM0, 91 cases, P = 0.260): 65 (65.0) | RP-1 staining negative, number (%) (pM1, 9 cases, P = 0.260): 1 (1.0) | RP-1 staining positive, number (%) (pM1, 9 cases, P = 0.260): 8 (8.0) | RP-1 staining negative, number (%) (pN0, 27 cases, P = 0.101): 6 (6.0) | RP-1 staining positive, number (%) (pN0, 27 cases, P = 0.101): 21 (21.0) | RP-1 staining negative, number (%) (pN1, 15 cases, P = 0.101): 8 (8.0) | RP-1 staining positive, number (%) (pN1, 15 cases, P = 0.101): 7 (7.0) | RP-1 staining negative, number (%) (pN2, 28 cases, P = 0.101): 6 (6.0) | RP-1 staining positive, number (%) (pN2, 28 cases, P = 0.101): 22 (22.0) | RP-1 staining negative, number (%) (pN3, 30 cases, P = 0.101): 7 (7.0) | RP-1 staining positive, number (%) (pN3, 30 cases, P = 0.101): 23 (23.0) | RP-1 staining negative, number (%) (pT1, 8 cases, P = 0.399): 3 (3.0) | RP-1 staining positive, number (%) (pT1, 8 cases, P = 0.399): 5 (5.0) | RP-1 staining negative, number (%) (pT2, 9 cases, P = 0.399): 1 (1.0) | RP-1 staining positive, number (%) (pT2, 9 cases, P = 0.399): 6 (6.0) | RP-1 staining negative, number (%) (pT3, 66 cases, P = 0.399): 20 (20.0) | RP-1 staining positive, number (%) (pT3, 66 cases, P = 0.399): 45 (45.0) | RP-1 staining negative, number (%) (pT4, 17 cases, P = 0.399): 3 (3.0) | RP-1 staining positive, number (%) (pT4, 17 cases, P = 0.399): 17 (17.0) | RP-1 staining negative, number (%) [11]: 0 (0.0) | RP-1 staining positive, number (%) [11]: 11 (11.0) | RP-1 staining negative, number (%) [12]: 1 (1.0) | RP-1 staining positive, number (%) [12]: 4 (4.0) | RP-1 staining negative, number (%) (survived, 31 cases, P < 0.001): 16 (16.0) | RP-1 staining positive, number (%) (survived, 31 cases, P < 0.001): 15 (15.0) | HSCORE of GC samples versus surrounding tissue (t-test, P < 0.001): significantly higher | cell types stained positive (tissue microarray, gastric carcinoma and surrounding tissue): positive only in tumor cells | RP-1 staining negative, number (%) [13]: 5 (5.0) | RP-1 staining positive, number (%) [13]: 14 (14.0) | RP-1 staining negative, number (%) [14]: 0 (0.0) | RP-1 staining positive, number (%) [14]: 2 (2.0) | RP-1 staining negative, number (%) [15]: 6 (6.0) | RP-1 staining positive, number (%) [15]: 9 (9.0)
